Test [1] deals with splenic B cells, BALB/c congenic (CB17) (IgH^b). The test can be described thus: Flow cytometry: tetramer staining of splenic B cells from BALB/c congenic CB17 (IgH^b) mice. Conditions: BALB/c mice homozygous for Igh^b; Fig. 5. The format is cell-based, mouse (CB17). As to the method:
(§1) N-biotinylated, linker/spacer-containing peptides used to make tetramers are detailed in Table S4 and Fig. 7A. Peptides were synthesized and purified using reverse-phase HPLC (Primm Biotechnology). To produce tetramerized forms of each peptides, 200 µM peptide and 6 µM APC-labeled streptavadin (SA) were combined at equal volumes, and mixtures were incubated at 4°C for 4 h. Unbound peptide was removed from peptide-APC complexes by centrifugal filtration using an Amicon Centriprep YM30 column (Millipore Corporation). Purified tetramer preparations were determined using the Micro BSA protein assay kit (Pierce Biotechnology).
Female C57BL/6, BALB/c, B6Igh^a, and CB17 (BALBc Igh^b) inbred mouse strains (8–12 wks of age) were purchased from Charles River Laboratories. All mice were housed in the Duke University Animal Facility in a pathogen-free environment with 12 h light/dark cycles at 20–25°C under AALAC guidelines and in accordance with all Institutional Animal Care and Use Committee and Duke University Institutional Biosafety Committee-approved animal protocols. […]
FACS staining of single cell suspensions (≥2×10^6) was conducted using pre-mixed combinations of fluorochrome-labeled Abs and APC-conjugated B cell tetramers at empirically-determined optimal concentrations. […]

For test [2], the system named is phosphorylated Erk in BALB/c splenic B cells. Nature of the test: Intracellular FACS of phosphorylated Erk1/2. In kind it is cell-based, mouse (BALB/c). The note with it: naïve BALB/c splenocytes; gated on ligated B cells; Fig. 8B. The procedure: Splenocyte suspensions were incubated at 37°C for various times with either APC-labeled F(ab)'2 anti-IgM (Jackson ImmunoResearch) or APC-labeled gp41 MPER tetramers. Stimulations were stopped by the addition of PhosFlow Lyse/Fix buffer (BD) and incubation for 10 min at 37°C. Cells were stained with B220-FITC prior to permeabilization with PhosFlow Perm Buffer III (BD). Permeabilized cells were stained with a PE-labeled Ab to Erk1 and Erk2 (BD), according to the manufacturer's instructions. Cells were fixed with 2% paraformaldehyde, and all data were collected and analyzed as done for standard flow cytometry.

Test [3] deals with naïve splenic BALB/c B cells. The test can be described thus: Flow cytometry: APC-labeled tetramer staining of BALB/c splenic B cells. In kind it is cell-based, mouse (BALB/c). The procedure: as §1
(§2) FACS staining of single cell suspensions (≥2×10^6) was conducted using pre-mixed combinations of fluorochrome-labeled Abs and APC-conjugated B cell tetramers at empirically-determined optimal concentrations. All Abs were from BD unless otherwise stated. Primary antibodies used were: PerCP anti-B220, FITC anti-IgD, FITC, PE or PE-Cy7 anti-IgM, PE anti-CD5, FITC anti-CD11b, PE-Cy7 anti-CD19, FITC anti-CD21, PE-Cy7 anti-CD23 (eBiosciences), and PE-Cy7 anti-CD93 (eBiosciences). Other reagents included biotinylated Abs against dump channel markers: Thy1 (Abcam), F4/80 (Abcam), CD11c, Gr-1, TER-119, and NK-1.1, secondary staining SA-Texas Red conjugate; v-amine live/dead violet dye (Molecular Probes), and Fc block (anti-CD16/32).
(§3) Staining was conducted at 4°C in several sequential steps in FACS staining buffer (1X PBS with 2% FCS, 0.1% NaN3), washing twice between steps. Cells were first incubated with v-amine live/dead dye for 15 min, then stained with APC-labeled tetramers for 30 min (and in some experiments, cold tetramer was incubated at 10 fold molar excess for 1 h, prior to staining with APC-labeled tetramers). Cells were then stained with Fc block, followed by incubation with combinations of primary Abs, and secondary staining with SA-Texas Red, each for 30 min. Data (≥2.5×10^5 events/sample) were acquired using an LSRII flow cytometer and Cell Quest software (BD Immunocytometry systems). FACS Analysis was performed using FlowJo software (Tree Star). For analysis, cells were gated in the following order: single cells were gated based on fsc height vs. fsc area+ssc height vs. ssc profiles, lymphocytes were gated on fsc and ssc profile, residual dead cells were excluded by negative gating with v-amine live/dead dye, and irrelevant non-B cells were excluded by negative gating with dump markers.
On the technique in general: Flow cytometry measures light scatter and fluorescence of single cells or particles in a stream.

In test [4] the test system is protein tyrosine phosphorylation in BALB/c splenic B cells. Nature of the test: Phosphotyrosine immunoblot of stimulated splenic B cells. The format is cell-based, mouse (BALB/c). The note with it: saturating tetramer 20 µg/10^6 cells, Fig. 8A. As to the method: To determine if gp41 MPER interactions with IgM^a could elicit the activating signals required for biological responses, we assessed BCR-proximal signaling events in BALB/c splenic B cells ligated with gp41 MPER tetramers. First, we determined the induction of protein tyrosine phosphorylation in cells incubated with saturating concentrations (20 µg/10^6 cells; see Fig. 1b) of gp41 MPER tetramer (Fig. 8A).
5×10^6 splenic BALB/c B cells were isolated by negative depletion of CD43-expressing cells with anti-mouse CD43 MACS beads (Miltenyi Biotech) to >95% purity, as assessed by flow cytometry. Purified B cells were equilibrated to 37°C in a humidified incubator and stimulated with gp41 MPER tetramers or F(ab)'2 anti-IgM (Jackson ImmunoResearch) in 5% FBS-containing DMEM media for various times. Whole cell extracts were made by lysing cell pellets in 1% NP-40 lysis buffer supplemented with PhosSTOP and complete, mini EDTA-free protease inhibitor tablets (Roche) and insoluble cellular debris was removed by centrifugation. Extracts were fractionated by reducing SDS PAGE on Novex Bis-Tris Mini gels (Invitrogen) and transferred to Invitrolon PVDF membranes (Invitrogen) using the Xcell II blot module. Primary Abs used were anti-phosphotyrosine clone 4G10 (Upstate) and anti-GAPDH (Millipore). Secondary Abs used were goat-anti-mouse IgG1 or IgG2a, both coupled to HRP (Jackson ImmunoResearch). […]
Background: In western blotting, separated proteins are transferred to a membrane and probed.

Test [5] has as its system BALB/c B cells (gp41 MPER tetramer binding). Nature of the test: Cold inhibition of APC-labeled gp41 MPER tetramer binding by unlabeled tetramers. The format is cell-based, mouse (BALB/c). The procedure:
as §2, §3

“Also recorded” adds a separate entry of the source.

On to “QQEKNEQELLELDKWASLWN [gp41 MPER tetramer, (residues 659–678 of the HIV-1 envelope)]”, for which, in test [1], the “gp41 MPER binding in congenic mice (in words)” value is given as “lost gp41 MPER binding”. Further, the “Erk phosphorylation (in words)” value in test [2] is on record as “detectable, but dampened induction of phosphorylated Erk; also recorded: peak gp41 MPER-induced Erk phosphorylation persisted at 30 min; also recorded: the entire population of gp41 MPER-gated B cells showed modest Erk activation”. Also, the “MFI binding pattern (in words)” value in test [3] (BALB/c B cell subsets, Fig. 1A, 2A, Table S1) is “the majority of MPER-reactive B cells within BALB/c subsets shifted as “low avidity” shoulders, with an additional, small fraction binding as a “higher-avidity” MFI tail”. Also, in test [3] (BALB/c splenic and peritoneal subsets, MFI and frequency, Fig. 2, Tables S1, S2), the “gp41 MPER reactivity among B cell subsets (in words)” value was “gp41 MPER reactivity was strongest in marginal zone (MZ) and peritoneal B1 B cell subsets of BALB/c mice; also recorded: exhibited lower levels of gp41 MPER binding”. In test [3] (BALB/c splenocytes, 10 µg/10^6 splenocytes, Fig. 1B), the “fraction of all B cells labeled at saturating tetramer” value is reported as about 25%. In addition, the “tetramer amount giving saturating binding” value in test [3] (BALB/c splenocytes, Fig. 1B) stood at 10 µg/10^6 splenocytes. In addition, the “tetramer amount with highest gp41 MPER/scrambled gp41 MPER binding ratio” value in test [3] (BALB/c splenocytes, sub-saturating, Fig. 1B) was 100 ng/10^6 splenocytes. For the same sequence, the “frequency of binding to BALB/c B cells” value in test [3] (high-frequency binding, 100 ng tetramer/10^6 cells) is listed as at least 5%. The “gp41 MPER binding over wide tetramer concentration range (in words)” value in test [3] (serial dilutions, MFI and fraction of labeled B cells, Fig. 1B) is given as “Elevated gp41 MPER binding to BALB/c cells, relative to C57BL/6 B cells, was observed at all concentrations of tetramers carrying MPER peptide; also recorded: substantially elevated relative to the scrambled peptide controls”. For the same sequence, the “percentage of tetramer-reactive B cells” value in test [3] (total splenic B cells (CD19^+), naïve BALB/c, APC tetramer 100 ng/10^6 splenocytes, above background without tetramer, Fig. 1A representative histogram) is about 7%. The “protein tyrosine phosphorylation relative to anti-IgM ligation” value in test [4] (lower than anti-IgM ligation of equal numbers of B cells) is listed as 2- to 3 fold. For the same sequence, the “protein tyrosine phosphorylation (in words)” value in test [4] (listed as gp41 MPER tetramers) was “induced rapid and reproducible patterns of protein phosphorylation; also recorded: only selected proteins were phosphorylated, including Syk, PI3K p110δ, PLC-γ2, and one or more of the Src kinase family members Lyn, Fyn, or Blk”. Further, the “inhibition of APC-labeled gp41 MPER tetramer binding” value in test [5] (pre-incubation with unlabeled competitor at 10-fold molar excess, 100 ng/10^6 splenocytes) is recorded as over 90%. Further, in test [5] (unlabeled competitor tetramer pre-incubated, Fig. 4A,B, average of three experiments (4B)), the “inhibition of APC-labeled gp41 MPER tetramer binding (in words)” value is listed as “Dose-dependent inhibition of APC-labeled gp41 MPER peptide binding was observed”.

The values are drawn from article PMC2751816, “Functional, Non-Clonal IgM^a-Restricted B Cell Receptor Interactions with the HIV-1 Envelope gp41 Membrane Proximal External Region” (PLoS ONE, 2009).
